Tested on: intestinal tracts
Assay: Contraction of the intestinal tracts in dogs by the balloon method, intravenous and nasal administration
Type: in vivo
Excerpt: L-leucine-13-motilin (A) and L-leucine-13-motilin-homoserin (B) were administrated to dogs through an intravenous route ([…]) by the ballon method to determine their activities on the contraction of the intestinal tracts, and the action of the surface active agent on promoting the absorption of the active substances administrated through a nasal administration was estimated in terms of percentage relative to the activity--100%-- of L-leucine-13-motilin administrated through an intravenous route on the contraction.
L-leucine-13-motilin-homoserine and L-leucine-13-motilin were each dissolved in purified water to prepare an aqueous solution, which was then aseptically poured into a vial in such a way that it contained the active substance in an amount of 1 mg when calculated as polypeptide. Each vial was finally sealed together and freeze-dried. For use, this vial is dissolved in physiological saline for injection.

[1] = Intravenous Administration (2.0 μg/kg/hr)
[2] = Nasal Administration (100 μg/kg/hr), Control = injection preparation without surface active agent

Row | Substance | activity on the contraction of the intestinal tracts, percentage relative to L-leucine-13-motilin intravenous (100%) [1] [%] | activity on the contraction of the intestinal tracts, percentage relative to L-leucine-13-motilin intravenous (100%) [2]
1 | L-leucine-13-motilin [A] | 100 ± 0 | No activity found
2 | L-leucine-13-motilin-homoserine [B] | 115 ± 5 | ≤ 30%
